The assay has as its target T1, SOS1 protein (Homo sapiens, UniProt Q07889).
T1 sequence (Q07889 1-1333): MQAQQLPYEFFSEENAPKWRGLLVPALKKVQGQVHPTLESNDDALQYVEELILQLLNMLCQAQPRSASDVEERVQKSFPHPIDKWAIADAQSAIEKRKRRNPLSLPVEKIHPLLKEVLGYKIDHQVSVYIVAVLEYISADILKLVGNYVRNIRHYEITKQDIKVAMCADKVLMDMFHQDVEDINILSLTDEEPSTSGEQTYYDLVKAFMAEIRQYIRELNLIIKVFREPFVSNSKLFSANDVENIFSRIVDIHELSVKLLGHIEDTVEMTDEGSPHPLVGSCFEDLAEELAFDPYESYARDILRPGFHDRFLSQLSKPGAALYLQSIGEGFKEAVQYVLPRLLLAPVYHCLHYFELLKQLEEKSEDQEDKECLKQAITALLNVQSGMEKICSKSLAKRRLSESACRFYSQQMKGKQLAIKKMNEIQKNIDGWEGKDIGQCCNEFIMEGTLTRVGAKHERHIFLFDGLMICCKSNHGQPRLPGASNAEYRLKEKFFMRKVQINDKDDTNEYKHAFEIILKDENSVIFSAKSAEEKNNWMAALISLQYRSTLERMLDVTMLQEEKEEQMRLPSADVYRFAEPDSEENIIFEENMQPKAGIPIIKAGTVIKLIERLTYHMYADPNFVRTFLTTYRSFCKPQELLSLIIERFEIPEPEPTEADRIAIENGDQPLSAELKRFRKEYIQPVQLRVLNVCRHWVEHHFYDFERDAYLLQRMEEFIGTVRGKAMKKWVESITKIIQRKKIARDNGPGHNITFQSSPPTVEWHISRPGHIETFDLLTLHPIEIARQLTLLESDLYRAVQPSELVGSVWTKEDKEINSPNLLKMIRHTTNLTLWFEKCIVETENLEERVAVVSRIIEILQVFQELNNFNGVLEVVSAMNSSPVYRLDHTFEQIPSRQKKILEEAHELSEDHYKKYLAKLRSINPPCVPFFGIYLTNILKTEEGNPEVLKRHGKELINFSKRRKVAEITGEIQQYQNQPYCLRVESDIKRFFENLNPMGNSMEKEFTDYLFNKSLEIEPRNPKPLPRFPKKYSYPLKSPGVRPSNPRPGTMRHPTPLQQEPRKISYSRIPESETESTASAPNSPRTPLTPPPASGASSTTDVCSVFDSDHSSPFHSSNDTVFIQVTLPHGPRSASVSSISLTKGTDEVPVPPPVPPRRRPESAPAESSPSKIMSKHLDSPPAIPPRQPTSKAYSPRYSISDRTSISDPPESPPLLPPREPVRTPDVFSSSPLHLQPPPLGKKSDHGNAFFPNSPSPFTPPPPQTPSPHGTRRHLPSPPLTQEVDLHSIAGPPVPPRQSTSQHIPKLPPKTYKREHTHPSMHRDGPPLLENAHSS
The assay can be described thus: SOS1 degradation assay (Western blot), NCI-H358 cells. In kind it is cell-based. Also on record: The degradation of SOS1 by the compounds was investigated on KRAS G12C mutant human non-small cell lung cancer cells NCI-H358; host or cells: NCI-H358 (human cancer cell lines). The note with it: SOS1 degradation, NCI-H358 cells, 24 h, Western blot; for DC50: read-out: NCI-H358 (G12C) DC50; for Dmax: read-out: NCI-H358 (G12C) Dmax. The essentials: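 Cells at 5×10^5 per well were treated for 24 h at 37 °C with compound at 0.03–3000 nM final. SOS1 in lysates was measured by Western blot with chemiluminescent densitometry and normalised to the control group. DC50 and Dmax came from nonlinear fits against log concentration.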
(A western blot detects proteins with antibodies after separation by electrophoresis.)

Broadly, the DC50 is the concentration giving 50% degradation. One may read the Dmax as the greatest extent of degradation seen. With `COc1cc2nc(C)nc(N[C@H](C)c3cc(N)cc(C(F)(F)F)c3)c2cc1[C@H]1CC[C@H](C(=O)N2CCN(CCOCC3CCN(C(=O)c4ccc(Cl)c(N5CCC(=O)NC5=O)c4)CC3)CC2)CC1` [Example 33, 1-(5-(4-((2-(4-((1R,4R)-4-(4-(((R)-1-(3-amino-5-(trifluoromethyl)phenyl)ethyl)amino)-7-methoxy-2-methylquinazolin-6-yl)cyclohexane-1-carbonyl)piperazin-1-yl)ethoxy)methyl)piperidine-1-carbonyl)-2-chlorophenyl)dihydropyrimidine-2,4(1H,3H)-dione], the DC50 was below 50 nM and the greatest degradation seen (Dmax) is 80 to 100%.

As for `COc1cc2nc(C)nc(N[C@H](C)c3cc(N)cc(C(F)(F)F)c3)c2cc1[C@H]1CC[C@H](C(=O)N2CCN(CC3CCC4(CC3)CCN(C(=O)c3ccc(Cl)c(N5CCC(=O)NC5=O)c3)CC4)CC2)CC1` [Example 2, 1-(5-(9-((4-((1R,4R)-4-(4-(((R)-1-(3-amino-5-(trifluoromethyl)phenyl)ethyl)amino)-7-methoxy-2-methylquinazolin-6-yl)cyclohexane-1-carbonyl)piperazin-1-yl)methyl)-3-azaspiro[5.5]undecane-3-carbonyl)-2-chlorophenyl)dihydropyrimidine-2,4(1H,3H)-dione], the half-maximal degradation concentration (DC50) is below 50 nM and the maximal degradation (Dmax) was in the range of 80 to 100%.

Take `COc1cc2nc(C)nc(N[C@H](C)c3cc(N)cc(C(F)(F)F)c3)c2cc1[C@H]1CC[C@H](C(=O)N2CCN(CCC3CCC4(CC3)CCN(C(=O)c3ccc(Cl)c(N5CCC(=O)NC5=O)c3)CC4)CC2)CC1` [Example 1, 1-(5-(9-(2-(4-((1R,4R)-4-(4-(((R)-1-(3-amino-5-(trifluoromethyl)phenyl)ethyl)amino)-7-methoxy-2-methylquinazolin-6-yl)cyclohexane-1-carbonyl)piperazin-1-yl)ethyl)-3-azaspiro[5.5]undecane-3-carbonyl)-2-chlorophenyl)dihydropyrimidine-2,4(1H,3H)-dione]: the 50% degradation concentration (DC50) is below 50 nM and the greatest degradation seen (Dmax) is 80 to 100%.

Take `COc1cc2nc(C)nc(N[C@H](C)c3cc(N)cc(C(F)(F)F)c3)c2cc1[C@H]1CC[C@H](C(=O)N2CCC(CCOCC3CCN(C(=O)c4ccc(Cl)c(N5CCC(=O)NC5=O)c4)CC3)CC2)CC1` [Example 19, 1-(5-(4-((2-(1-((1R,4R)-4-(4-(((R)-1-(3-amino-5-(trifluoromethyl)phenyl)ethyl)amino)-7-methoxy-2-methylquinazolin-6-yl)cyclohexane-1-carbonyl)piperidin-4-yl)ethoxy)methyl)piperidine-1-carbonyl)-2-chlorophenyl)dihydropyrimidine-2,4(1H,3H)-dione]: the DC50 lay in the range of 100 to 500 nM and the Dmax lay within 50 to 80%.

Take `COc1cc2nc(C)nc(N[C@H](C)c3cccc4c3CCS4(=O)=O)c2cc1[C@H]1CC[C@H](C(=O)N2CCN(CC3CCC4(CC3)CCN(C(=O)c3ccc(Cl)c(N5CCC(=O)NC5=O)c3)CC4)CC2)CC1` [Example 10, 1-(2-chloro-5-(9-((4-((1R,4R)-4-(4-(((R)-1-(1,1-dioxo-2,3-dihydrobenzo[b]thiophen-4-yl)ethyl)amino)-7-methoxy-2-methylquinazolin-6-yl)cyclohexane-1-carbonyl)piperazin-1-yl)methyl)-3-azaspiro[5.5]undecane-3-carbonyl)phenyl)dihydropyrimidine-2,4(1H,3H)-dione]: the half-maximal degradation concentration (DC50) was below 50 nM and the greatest degradation seen (Dmax) lay in the range of 50 to 80%.

On to `CNCc1ccccc1-c1csc([C@@H](C)Nc2nc(C)nc3cc(OC)c([C@H]4CC[C@H](C(=O)N5CCN(CC6CCC7(CC6)CCN(C(=O)c6ccc(OC)c(N8CCC(=O)NC8=O)c6)CC7)CC5)CC4)cc23)c1` [Example 73, 1-(2-methoxy-5-(9-((4-((1R,4R)-4-(7-methoxy-2-methyl-4-(((R)-1-(4-(2-((methylamino)methyl)phenyl)thien-2-yl)ethyl)amino)quinazolin-6-yl)cyclohexane-1-carbonyl)piperazin-1-yl)methyl)-3-azaspiro[5.5]undecane-3-carbonyl)phenyl)dihydropyrimidine-2,4(1H,3H)-dione], for which the DC50 was below 50 nM and the Dmax lay in the range of 80 to 100%.
